Measurements as given in paper PMC4697443 (Bioorganic & medicinal chemistry, 2015).
Marks after values point to notes of the source that are not given here.

Test system: BV2 microglial cells

## 3-Chloro-N-(1-methyl-1H-benzo[d]imidazol-2-yl)benzamide [Compound 7]
  Viability: 1000^d μM
